Assay results taken from patent publication US12625141B2, “Fluorescent dye, preparation method and uses thereof” (FLUORESCENCE DIAGNOSIS (SHANGHAI) BIOTECH COMPANY LTD., priority 2019, dated 2026).

How the values were obtained:
[1] = Fluorescence emission in glycerol versus methanol (viscosity response); type: physicochemical; conditions: for Glycerol/methanol fluorescence intensity ratio: 1×10^-5 M in glycerol and methanol, maximum excitation wavelength of each dye; for Emission (nm): 1×10^-5 M, maximum excitation wavelength of each fluorescent dye
[2] = tested on: F30-8Pepper-5 RNA aptamer; experiment: Binding to RNA aptamer, optical properties after binding; conditions: for Em/nm / Ex/nm / ε / QY (−): after binding to RNA aptamer; for QY (−): relative method with Rhodamine 6G as the standard; for Activation Multiple: fluorescence activation after binding to RNA aptamer; for Kd: binding to RNA aptamer
[3] = Fluorescence emission at different viscosity conditions in diethanol-glycerol mixed solution; type: physicochemical; conditions: 1×10^−5 M, excitation at 480 nm
RNA aptamer in cells = experiment: Labeling intracellular RNA aptamers in cells; type: cell-based; conditions: for Fluorescence of cells not expressing the RNA aptamer: cells not expressing the RNA aptamer (FIG. 17B); for Fluorescence of cells transcribing the RNA aptamer: cells transcribing the RNA aptamer (FIG. 17A)
[4] = tested on: ACTB-4Pepper RNA aptamer (skeleton protein mRNA) in 293T/17 cell line; experiment: Labeling intracellular mRNA, flow detection; type: cell-based; conditions: 0.2 μM in PBS, incubated for 5 minutes
Description: FIGS. 18A and 18B are the application of molecular rotors III-3, III-43 in labeling intracellular mRNA.

SMILES | Glycerol/methanol fluorescence intensity ratio [1] | Emission (nm) [1] [nm] | also measured
CN(C)c1ccc(-c2ccc(/C=C(\C#N)c3ccc(C(=O)O)cc3)s2)s1 [III-26] | 368 | 676 | 
CCN(CC)c1ccc(/C=C(\C#N)c2ccc(C#N)cc2)cc1 [III-2] | 870 | 530 | 
CN(C)CCN(C)c1ccc(/C=C(\C#N)c2ccc(C#N)cc2)cc1 [III-4] | 892 | 521 | Em/nm [2]: 514 nm; Ex/nm [2]: 458 nm; ε [2]: 44100 M⁻¹ cm⁻¹; QY (−) [2]: 0.45; Activation Multiple [2]: 4748; Sensitivity of fluorescence intensity to viscosity [3]: sensitive to viscosity; Fluorescence of cells not expressing the RNA aptamer (RNA aptamer in cells): no fluorescence; Fluorescence of cells transcribing the RNA aptamer (RNA aptamer in cells): bright fluorescence
CN(CCO)c1ncc(/C=C(\C#N)c2ccc(C#N)cc2)cn1 [III-11] | 869 | 470 | 
CN(CCO)c1ccc(/C=C(\C#N)c2ccc(C#N)cc2)cc1 [III-3] | 1025 | 530 | Em/nm [2]: 530 nm; Ex/nm [2]: 485 nm; ε [2]: 65300 M⁻¹ cm⁻¹; QY (−) [2]: 0.66; Kd [2]: 3.5 nM; Activation Multiple [2]: 3595; Sensitivity of fluorescence intensity to viscosity [3]: sensitive to viscosity; Fluorescence of cells not expressing the RNA aptamer (RNA aptamer in cells): no fluorescence; Fluorescence of cells transcribing the RNA aptamer (RNA aptamer in cells): bright fluorescence; Background fluorescence in cells [4]: no obvious background fluorescence; Labeling of skeleton protein mRNA in cell lines expressing target RNA [4]: could specifically mark the mRNA of skeleton protein
CN(CCO)c1cc2c(s1)-c1sc(/C=C(\C#N)c3ccc(C#N)cc3)cc1[Si]2(C)C [III-33] | 691 | 705 | 
CN(CCO)c1cc2sc3cc(/C=C(\C#N)c4ccc(C#N)cc4)sc3c2s1 [III-28] | 559 | 662 | Sensitivity of fluorescence intensity to viscosity [3]: sensitive to viscosity
CN(C)c1ccc(/C=C(\C#N)c2ccc(C#N)cc2)cc1 [III-1] | 990 | 530 | 
CN(C)CCN(C)c1cnc(/C=C(\C#N)c2ccc(C#N)cc2)cn1 [III-7] | 977 | 485 | Em/nm [2]: 485 nm; Ex/nm [2]: 443 nm; ε [2]: 49100 M⁻¹ cm⁻¹; QY (−) [2]: 0.42; Kd [2]: 8 nM; Activation Multiple [2]: 691; Fluorescence of cells not expressing the RNA aptamer (RNA aptamer in cells): no fluorescence; Fluorescence of cells transcribing the RNA aptamer (RNA aptamer in cells): bright fluorescence
CN(CCO)c1ccc(/C=C(\C#N)c2ccc(C#N)cn2)cc1 [III-13] | 752 | 545 | 
CN(CCO)c1ccc(/C=C(\C#N)c2cnc(C#N)cn2)cc1 [III-14] | 785 | 550 | 
CN(C)c1ccc(-c2ccc(/C=C(\C#N)c3ccc(C#N)cc3)cc2)cc1 [III-22] | 989 | 650 | 
N#C/C(=C\c1cc2c3c(c1)CCCN3CCC2)c1ccc(C#N)cc1 [III-15] | 1011 | 561 | 
CCN(CC)CCN(C)c1ccc(/C=C(\C#N)c2ccc(C#N)cc2)cn1 [III-9] | 920 | 490 | 
COCCOCCOCCOCCOCCN(C)c1cc2c(s1)-c1sc(/C=C(\C#N)c3ccc(C#N)cc3)cc1C2(C)C [III-35] | 710 | 690 | 
CN(CCO)c1ccc(/C=C(\C#N)c2ccc(C#N)cc2)cn1 [III-8] | 1168 | 495 | 
CN(CCO)c1cc2c(s1)-c1sc(/C=C(\C#N)c3ccc(C(N)=O)cc3)cc1C2(C)C [III-34] | 489 | 689 | Sensitivity of fluorescence intensity to viscosity [3]: sensitive to viscosity
